Laboratory results: US11065244B2, “Methods of use of tetrahydroberberine (THB)” (DIGNITY HEALTH, priority 2010, dated 2021)

Target: T1, neuronal KATP channels (Rattus norvegicus, UniProt P70673+Q09429)
T1 construct: functional KATP channels natively expressed on midbrain dopamine neurons; from tissue; host or cells: acutely dissociated dopaminergic neurons of rat substantia nigra pars compacta
Test: Rotenone-induced outward current in voltage-clamp mode in the presence of the D2 receptor antagonist sulpiride
Type: cell-based
Conditions: 100 mM substance as printed; sulpiride present; VH −30 mV; from 125.8±37.1 pA; 6 neurons; p<0.01
Description: The protocol for preparation of single neurons from the rat SNc was approved by the Institutional Animal Care and Use Committee of the Barrow Neurological Institute. Single DA neurons were acutely dissociated from the SNc of 2-3-week-old Wistar rats following the protocol as previously described. Briefly, rats were anesthetized with isoflurane, and brain tissue was rapidly removed and immersed in cold (2-4° C.) dissection solution which contained: 136.7 mM NaCl, 5 mM KCl, 0.1 mM Na2HPO4, 0.2 mM KH2PO4, 9.84 mM HEPES, 16.6 mM D-glucose, 21.9 mM sucrose, pH 7.3, 330 mOsm, oxygenated with 100% O2 [8]. Three 400-μm coronal slices containing the SNc were cut using a vibrotome (Vibroslice 725M, WPI, Sarasota, Fla.). After cutting, slices were continuously bubbled with 95% O2-5% CO2 at room temperature (22±1° C.) for at least one hour in artificial cerebrospinal fluid (ACSF), which contained: 124 mM NaCl, 5 mM KCl, 24 mM NaHCO3, 1.3 mM MgSO4, 1.2 mM KH2PO4, 2.4 mM CaCl2, and 10 mM glucose, pH 7.4. Thereafter, slices were treated with pronase (1 mg per 6 ml) at 31° C. for 30 minutes in ACSF. The SNc was identified in a coronal slice using a stereo microscope with reference to the rat brain atlas, and was micro-punched out from slices using a well-polished needle. One punched piece was then transferred to a 35-mm culture dish filled with well-oxygenated standard extracellular solution, which contained: 150 mM NaCl, 5 mM KCl, 1 mM MgCl2, 2 mM CaCl2, 10 mM glucose 10, and 10 mM HEPES, pH 7.4 (with Tris-base). The punched piece was then dissociated mechanically using a fire-polished micro-Pasteur pipette under an inverted microscope (Olympus IX-70, Lake Success, N.Y.). The separated cells adhered to the bottom of the culture dish within 30 minutes. […]
Perforated patch whole-cell recording techniques were employed as previously described. […] The liquid junction potential was 14 mV calculated using Clamplex 9.2 (Axon Instruments, Foster City, Calif.) and corrections were made for junction potentials post-hoc. […]

T1 sequence (P70673 whole entry): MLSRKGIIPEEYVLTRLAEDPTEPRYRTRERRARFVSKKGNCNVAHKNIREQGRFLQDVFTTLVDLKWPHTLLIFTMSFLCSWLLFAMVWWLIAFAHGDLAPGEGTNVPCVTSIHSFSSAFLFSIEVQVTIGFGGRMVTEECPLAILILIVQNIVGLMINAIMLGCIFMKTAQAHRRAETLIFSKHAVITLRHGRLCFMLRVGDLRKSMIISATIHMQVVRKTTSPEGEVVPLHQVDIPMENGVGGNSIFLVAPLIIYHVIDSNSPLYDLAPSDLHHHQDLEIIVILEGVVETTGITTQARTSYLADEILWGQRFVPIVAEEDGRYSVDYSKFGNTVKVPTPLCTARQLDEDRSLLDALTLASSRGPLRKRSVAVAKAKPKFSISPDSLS
T1 sequence (Q09429 whole entry): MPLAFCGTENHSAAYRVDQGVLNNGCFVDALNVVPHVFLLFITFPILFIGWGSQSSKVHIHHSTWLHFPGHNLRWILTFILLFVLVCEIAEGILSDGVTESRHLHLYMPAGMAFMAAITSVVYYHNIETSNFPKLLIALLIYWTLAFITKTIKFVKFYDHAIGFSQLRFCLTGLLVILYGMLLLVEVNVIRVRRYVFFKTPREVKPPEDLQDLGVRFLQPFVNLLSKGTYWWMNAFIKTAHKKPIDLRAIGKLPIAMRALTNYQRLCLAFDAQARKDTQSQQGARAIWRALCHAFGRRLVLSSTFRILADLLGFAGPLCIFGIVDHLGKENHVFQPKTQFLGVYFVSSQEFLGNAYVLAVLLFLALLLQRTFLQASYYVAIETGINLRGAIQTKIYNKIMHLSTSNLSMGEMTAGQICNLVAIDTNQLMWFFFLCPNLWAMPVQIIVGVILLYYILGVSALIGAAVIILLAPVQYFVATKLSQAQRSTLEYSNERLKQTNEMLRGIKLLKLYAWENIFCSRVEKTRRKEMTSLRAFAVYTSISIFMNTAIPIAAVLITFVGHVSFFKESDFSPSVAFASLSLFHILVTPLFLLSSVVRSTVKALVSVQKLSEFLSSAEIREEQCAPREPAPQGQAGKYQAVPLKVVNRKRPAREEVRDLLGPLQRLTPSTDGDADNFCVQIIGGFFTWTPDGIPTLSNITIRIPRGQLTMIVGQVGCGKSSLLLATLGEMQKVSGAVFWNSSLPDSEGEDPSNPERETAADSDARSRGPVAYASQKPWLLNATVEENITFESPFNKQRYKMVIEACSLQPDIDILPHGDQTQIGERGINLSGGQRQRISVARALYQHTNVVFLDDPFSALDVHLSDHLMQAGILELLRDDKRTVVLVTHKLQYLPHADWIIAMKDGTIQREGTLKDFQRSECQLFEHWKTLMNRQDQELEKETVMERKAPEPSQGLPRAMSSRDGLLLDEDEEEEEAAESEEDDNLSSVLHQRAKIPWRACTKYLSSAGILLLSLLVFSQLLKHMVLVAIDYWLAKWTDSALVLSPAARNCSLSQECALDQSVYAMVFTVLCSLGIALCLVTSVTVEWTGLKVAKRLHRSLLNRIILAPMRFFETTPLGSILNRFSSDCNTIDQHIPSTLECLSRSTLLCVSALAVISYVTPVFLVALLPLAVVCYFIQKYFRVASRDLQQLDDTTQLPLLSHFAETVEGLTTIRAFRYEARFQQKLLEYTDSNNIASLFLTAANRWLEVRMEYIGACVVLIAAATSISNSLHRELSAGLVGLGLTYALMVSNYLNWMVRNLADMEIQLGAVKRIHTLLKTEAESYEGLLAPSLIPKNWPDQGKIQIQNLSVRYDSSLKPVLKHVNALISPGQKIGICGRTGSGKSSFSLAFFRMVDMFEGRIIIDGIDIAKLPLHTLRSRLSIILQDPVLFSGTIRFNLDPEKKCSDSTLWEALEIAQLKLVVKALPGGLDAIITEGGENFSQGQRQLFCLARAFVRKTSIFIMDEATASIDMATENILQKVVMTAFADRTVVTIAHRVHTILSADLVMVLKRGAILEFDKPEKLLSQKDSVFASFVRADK

## COc1ccc2c(c1OC)CN1CCc3cc4c(cc3C1C2)OCO4 (stereo not shown) [THB, tetrahydroberberine]
  rotenone-induced outward current amplitude after addition of substance: 52.5±25.7 pA
